Data: US10457703B2, “Bile acid derivatives as FXR/TGR5 agonists and methods of use thereof” (ENANTA PHARMACEUTICALS, INC., priority 2015, dated 2019)

Target: human FXR (NR1H4) (Homo sapiens (Human), UniProt Q96RI1)
Assay: Human FXR (NR1H4) Assay (Gal4 promoter driven luciferase reporter, Indigo Bioscience kit);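 as to Efficacy (%): 100% equals the efficacy of CDCA; efficacy normalized to CDCA set as 100%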
Assay type: cell-based
Conditions: for EC50: Human FXR (NR1H4) Assay, potency ranges; for Emax: read-out: Efficacy (%)
Outline: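 CHO reporter cells expressing human FXR with an FXR-responsive luciferase reporter, treated with compound doses at 0.2% DMSO. Incubation lasted 22 h at 37 °C before luciferase detection reagent was added. Luminescence was then read.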

Chain of human FXR (NR1H4) (Q96RI1 whole entry, the tested form may be a part): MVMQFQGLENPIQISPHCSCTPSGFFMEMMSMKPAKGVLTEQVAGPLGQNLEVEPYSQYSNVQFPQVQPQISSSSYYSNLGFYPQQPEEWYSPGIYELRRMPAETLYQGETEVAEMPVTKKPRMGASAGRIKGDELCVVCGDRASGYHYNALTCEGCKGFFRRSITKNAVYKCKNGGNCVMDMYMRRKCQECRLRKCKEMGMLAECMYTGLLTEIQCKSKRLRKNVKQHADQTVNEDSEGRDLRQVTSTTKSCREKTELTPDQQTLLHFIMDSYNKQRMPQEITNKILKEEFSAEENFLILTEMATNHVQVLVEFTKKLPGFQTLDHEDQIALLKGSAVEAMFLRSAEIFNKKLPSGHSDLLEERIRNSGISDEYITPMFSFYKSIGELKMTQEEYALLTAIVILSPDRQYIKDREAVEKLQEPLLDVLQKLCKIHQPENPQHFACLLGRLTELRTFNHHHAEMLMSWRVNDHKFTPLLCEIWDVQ

SMILES	EC50 [µM]	Emax [%]
CC[C@H]1[C@@H](O)[C@@H]2[C@H](CC[C@]3(C)[C@@H]([C@H](C)CCOC(=O)NS(=O)(=O)C4CCCC4)CC[C@@H]23)[C@@]2(C)CC[C@@H](O)C[C@@H]12 [Example 47]	< 0.1	321
CC[C@H]1[C@@H](O)[C@@H]2[C@H](CC[C@]3(C)[C@@H]([C@H](C)COC(=O)NS(=O)(=O)c4ccc(N5CCCC5)nc4)CC[C@@H]23)[C@@]2(C)CC[C@@H](O)C[C@@H]12 [Example 44-b]	< 0.1	216
CC[C@H]1[C@@H](O)[C@@H]2[C@H](CC[C@]3(C)[C@@H]([C@H](C)CCOC(=O)NS(=O)(=O)c4ccccc4OC)CC[C@@H]23)[C@@]2(C)CC[C@@H](O)C[C@@H]12 [Example 84]	< 0.1	270
CC[C@H]1[C@@H](O)[C@@H]2[C@H](CC[C@]3(C)[C@@H]([C@H](C)CCOC(=O)NS(=O)(=O)c4cccc(OC)c4)CC[C@@H]23)[C@@]2(C)CC[C@@H](O)C[C@@H]12 [Example 86]	0.1 to 1	288
CC[C@H]1[C@@H](O)[C@@H]2[C@H](CC[C@]3(C)[C@@H]([C@H](C)COC(=O)NS(=O)(=O)c4ccc(-n5cccn5)cc4)CC[C@@H]23)[C@@]2(C)CC[C@@H](O)C[C@@H]12 [Example 37]	< 0.1	207
CC[C@H]1[C@@H](O)[C@@H]2[C@H](CC[C@]3(C)[C@@H]([C@H](C)CCCOC(=O)NS(=O)(=O)C4CCCCC4)CC[C@@H]23)[C@@]2(C)CC[C@@H](O)C[C@@H]12 [Example 2]	0.1 to 1	247
CC[C@H]1[C@@H](O)[C@@H]2[C@H](CC[C@]3(C)[C@@H]([C@H](C)CCCOC(=O)NS(=O)(=O)C4CCCC4)CC[C@@H]23)[C@@]2(C)CC[C@@H](O)C[C@@H]12 [Example 120]	0.1 to 1	485
CC[C@H]1[C@@H](O)[C@@H]2[C@H](CC[C@]3(C)[C@@H]([C@H](C)CCOC(=O)NS(=O)(=O)CCOC)CC[C@@H]23)[C@@]2(C)CC[C@@H](O)C[C@@H]12 [Example 83]	0.1 to 1	275
CC[C@H]1[C@@H](O)[C@@H]2[C@H](CC[C@]3(C)[C@@H]([C@H](C)CCCOC(=O)NC4CC4)CC[C@@H]23)[C@@]2(C)CC[C@@H](O)C[C@@H]12 [Example 122]	0.1 to 1	204
CC[C@H]1[C@@H](O)[C@@H]2[C@H](CC[C@]3(C)[C@@H]([C@H](C)COC(=O)NC4CCCCC4)CC[C@@H]23)[C@@]2(C)CC[C@@H](O)C[C@@H]12 [Example 199]	1 to 10	14
CC[C@H]1[C@@H](O)[C@@H]2[C@H](CC[C@]3(C)[C@@H]([C@H](C)CCCOC(=O)NS(=O)(=O)c4ccc(C(C)(C)C)cc4)CC[C@@H]23)[C@@]2(C)CC[C@@H](O)C[C@@H]12 [Example 111]	0.1 to 1	208
CC[C@H]1[C@@H](O)[C@@H]2[C@H](CC[C@]3(C)[C@@H]([C@H](C)CCOC(=O)NS(=O)(=O)CC(C)(C)C)CC[C@@H]23)[C@@]2(C)CC[C@@H](O)C[C@@H]12 [Example 103]	< 0.1	294
CC[C@H]1[C@@H](O)[C@@H]2[C@H](CC[C@]3(C)[C@@H]([C@H](C)CCOC(=O)NS(=O)(=O)c4ccccc4Cl)CC[C@@H]23)[C@@]2(C)CC[C@@H](O)C[C@@H]12 [Example 76]	0.1 to 1	234
CC[C@H]1[C@@H](O)[C@@H]2[C@H](CC[C@]3(C)[C@@H]([C@H](C)CCOC(=O)N4CCN(c5ccccc5OC)CC4)CC[C@@H]23)[C@@]2(C)CC[C@@H](O)C[C@@H]12 [Example 170]	< 0.1	283
CC[C@H]1[C@@H](O)[C@@H]2[C@H](CC[C@]3(C)[C@@H]([C@H](C)CCOC(=O)NCCC4CC4)CC[C@@H]23)[C@@]2(C)CC[C@@H](O)C[C@@H]12 [Example 177]	0.1 to 1	460
CC[C@H]1[C@@H](O)[C@@H]2[C@H](CC[C@]3(C)[C@@H]([C@H](C)CCOC(=O)N4CC[C@@H](O)C4)CC[C@@H]23)[C@@]2(C)CC[C@@H](O)C[C@@H]12 [Example 215]	< 0.1	143
CC[C@H]1[C@@H](O)[C@@H]2[C@H](CC[C@]3(C)[C@@H]([C@H](C)CCOC(=O)NC4CCCCCC4)CC[C@@H]23)[C@@]2(C)CC[C@@H](O)C[C@@H]12 [Example 138]	0.1 to 1	297
CC[C@H]1[C@@H](O)[C@@H]2[C@H](CC[C@]3(C)[C@@H]([C@H](C)COC(=O)NS(=O)(=O)c4ccc(-c5ccccc5)cc4)CC[C@@H]23)[C@@]2(C)CC[C@@H](O)C[C@@H]12 [Example 32]	< 0.1	164

SMILES	EC50 [µM]	Emax [%]
CC[C@H]1[C@@H](O)[C@@H]2[C@H](CC[C@]3(C)[C@@H]([C@H](C)CCOC(=O)NS(=O)(=O)c4ccc(F)cc4)CC[C@@H]23)[C@@]2(C)CC[C@@H](O)C[C@@H]12 [Example 46]	< 0.1	267
CC[C@H]1[C@@H](O)[C@@H]2[C@H](CC[C@]3(C)[C@@H]([C@H](C)CCOC(=O)NCCc4ccc(OC)c(OC)c4)CC[C@@H]23)[C@@]2(C)CC[C@@H](O)C[C@@H]12 [Example 144]	0.1 to 1	229
CC[C@H]1[C@@H](O)[C@@H]2[C@H](CC[C@]3(C)[C@@H]([C@H](C)CCOC(=O)NCc4ccc(C(=O)O)cc4)CC[C@@H]23)[C@@]2(C)CC[C@@H](O)C[C@@H]12 [Example 159]	0.1 to 1	221
CC[C@H]1[C@@H](O)[C@@H]2[C@H](CC[C@]3(C)[C@@H]([C@H](C)COC(=O)NS(=O)(=O)c4ccc(-n5cnnn5)cc4)CC[C@@H]23)[C@@]2(C)CC[C@@H](O)C[C@@H]12 [Example 44-e]	0.1 to 1	204
CC[C@H]1[C@@H](O)[C@@H]2[C@H](CC[C@]3(C)[C@@H]([C@H](C)COC(=O)NS(=O)(=O)c4ccc(C(C)(C)C)cc4)CC[C@@H]23)[C@@]2(C)CC[C@@H](O)C[C@@H]12 [Example 4]	< 0.1	319
CC[C@H]1[C@@H](O)[C@@H]2[C@H](CC[C@]3(C)[C@@H]([C@H](C)CCOC(=O)N[C@H]4CCC[C@@H]4O)CC[C@@H]23)[C@@]2(C)CC[C@@H](O)C[C@@H]12 [Example 208]	0.1 to 1	205
CC[C@H]1[C@@H](O)[C@@H]2[C@H](CC[C@]3(C)[C@@H]([C@H](C)CCOC(=O)NS(=O)(=O)c4cc(C(F)(F)F)cc(C(F)(F)F)c4)CC[C@@H]23)[C@@]2(C)CC[C@@H](O)C[C@@H]12 [Example 104-h]	1 to 10	208
CC[C@H]1[C@@H](O)[C@@H]2[C@H](CC[C@]3(C)[C@@H]([C@H](C)COC(=O)NS(=O)(=O)c4ccc(-n5ccnc5)cc4)CC[C@@H]23)[C@@]2(C)CC[C@@H](O)C[C@@H]12 [Example 44-h]	0.1 to 1	194
CC[C@H]1[C@@H](O)[C@@H]2[C@H](CC[C@]3(C)[C@@H]([C@H](C)CCOC(=O)NC(C)(C)C)CC[C@@H]23)[C@@]2(C)CC[C@@H](O)C[C@@H]12 [Example 192]	1 to 10	186
CC[C@H]1[C@@H](O)[C@@H]2[C@H](CC[C@]3(C)[C@@H]([C@H](C)COC(=O)N4CCC4)CC[C@@H]23)[C@@]2(C)CC[C@@H](O)C[C@@H]12 [Example 200]	1 to 10	7
CC[C@H]1[C@@H](O)[C@@H]2[C@H](CC[C@]3(C)[C@@H]([C@H](C)CCOC(=O)N4CC(=O)NS4(=O)=O)CC[C@@H]23)[C@@]2(C)CC[C@@H](O)C[C@@H]12 [Example 110]	1 to 10	28
CC[C@H]1[C@@H](O)[C@@H]2[C@H](CC[C@]3(C)[C@@H]([C@H](C)CCOC(=O)Nc4ccc5ccccc5c4)CC[C@@H]23)[C@@]2(C)CC[C@@H](O)C[C@@H]12 [Example 197]	1 to 10	101
CC[C@H]1[C@@H](O)[C@@H]2[C@H](CC[C@]3(C)[C@@H]([C@H](C)CCOC(=O)NS(C)(=O)=O)CC[C@@H]23)[C@@]2(C)CC[C@@H](O)C[C@@H]12 [Example 97]	0.1 to 1	245
CC[C@H]1[C@@H](O)[C@@H]2[C@H](CC[C@]3(C)[C@@H]([C@H](C)COC(=O)NS(=O)(=O)c4ccc(C5CCCCC5)cc4)CC[C@@H]23)[C@@]2(C)CC[C@@H](O)C[C@@H]12 [Example 11]	< 0.1	224
CC[C@H]1[C@@H](O)[C@@H]2[C@H](CC[C@]3(C)[C@@H]([C@H](C)COC(=O)NS(=O)(=O)c4ccc(Oc5ccccc5)cc4)CC[C@@H]23)[C@@]2(C)CC[C@@H](O)C[C@@H]12 [Example 31]	0.1 to 1	207
CC[C@H]1[C@@H](O)[C@@H]2[C@H](CC[C@]3(C)[C@@H]([C@H](C)COC(=O)NS(=O)(=O)c4ccc(-c5ccccc5)s4)CC[C@@H]23)[C@@]2(C)CC[C@@H](O)C[C@@H]12 [Example 10]	< 0.1	259
CC[C@H]1[C@@H](O)[C@@H]2[C@H](CC[C@]3(C)[C@@H]([C@H](C)CCOC(=O)NS(=O)(=O)c4cnn(C)c4)CC[C@@H]23)[C@@]2(C)CC[C@@H](O)C[C@@H]12 [Example 82]	1 to 10	294
CC[C@H]1[C@@H](O)[C@@H]2[C@H](CC[C@]3(C)[C@@H]([C@H](C)CCOC(=O)N[C@@H](C)C4CC4)CC[C@@H]23)[C@@]2(C)CC[C@@H](O)C[C@@H]12 [Example 175]	0.1 to 1	210
